Test results published in ChEMBL document CHEMBL1154270, “Light-independent metabolomics of endophytic Thielavia subthermophila provides insight into microbial hypericin biosynthesis” (J Nat Prod, 2009).
Calls of active or inactive are those of the source. No cut-off for these calls is given here.

Tests used:
THP-1 [1] = assay: Cytotoxicity against human THP1 cells after 48 hrs assessed morphological changes compound exposed to light for 20 mins before treatment; format: functional, cell-based
THP-1 [2] = assay: Cytotoxicity against human THP1 cells after 48 hrs assessed as morphological changes in the dark condition; format: functional, cell-based

SMILES	Activity (THP-1 [1])	Activity (THP-1 [2])
Cc1cc(O)c2c(=O)c3c(O)cc(O)c4c5c(O)cc(O)c6c(=O)c7c(O)cc(C)c8c1c2c(c34)c(c78)c65	Active	Active
Cc1cc(O)c2c(c1)C(=O)c1cc(O)cc(O)c1C2=O	Active	Active
Cc1cc(O)c2c(c1)Cc1cc(O)cc(O)c1C2=O	Active	Active
Cc1cc(O)c2c(=O)c3c(O)cc(O)c4c5c(O)cc(O)c6c(=O)c7c(O)cc(C)cc7c(c65)c(c2c1)c34	Active	Active
